# Assay results: patent publication US20240408216A1, “PROTEIN INHIBITOR OR DEGRADING AGENT, PHARMACEUTICAL COMPOSITION CONTAINING SAME AND PHARMACEUTICAL USE” (JING MEDICINE TECHNOLOGY (SHANGHAI) LTD., priority 2021, published 2024)
# pIC50: −log10 of the molar value.
# Experiments:
# [1] = biological target: T1, BaF3 (EGFR Del19/C797S) (Homo sapiens, UniProt P00533, C797S, cells depend on it, form not given); assay: Cell proliferation IC50 assay (Cell Titer GLO), BaF3 DC cells; assay type: cell-based, mouse; conditions: Table 6, 72 h
# T1 construct: BaF3 (EGFR Del19/C797S)|DC|RPMI1640 + 10% FBS
# T1 sequence (P00533 with tags, fused parts or gaps DEL746-750/C797S, form open): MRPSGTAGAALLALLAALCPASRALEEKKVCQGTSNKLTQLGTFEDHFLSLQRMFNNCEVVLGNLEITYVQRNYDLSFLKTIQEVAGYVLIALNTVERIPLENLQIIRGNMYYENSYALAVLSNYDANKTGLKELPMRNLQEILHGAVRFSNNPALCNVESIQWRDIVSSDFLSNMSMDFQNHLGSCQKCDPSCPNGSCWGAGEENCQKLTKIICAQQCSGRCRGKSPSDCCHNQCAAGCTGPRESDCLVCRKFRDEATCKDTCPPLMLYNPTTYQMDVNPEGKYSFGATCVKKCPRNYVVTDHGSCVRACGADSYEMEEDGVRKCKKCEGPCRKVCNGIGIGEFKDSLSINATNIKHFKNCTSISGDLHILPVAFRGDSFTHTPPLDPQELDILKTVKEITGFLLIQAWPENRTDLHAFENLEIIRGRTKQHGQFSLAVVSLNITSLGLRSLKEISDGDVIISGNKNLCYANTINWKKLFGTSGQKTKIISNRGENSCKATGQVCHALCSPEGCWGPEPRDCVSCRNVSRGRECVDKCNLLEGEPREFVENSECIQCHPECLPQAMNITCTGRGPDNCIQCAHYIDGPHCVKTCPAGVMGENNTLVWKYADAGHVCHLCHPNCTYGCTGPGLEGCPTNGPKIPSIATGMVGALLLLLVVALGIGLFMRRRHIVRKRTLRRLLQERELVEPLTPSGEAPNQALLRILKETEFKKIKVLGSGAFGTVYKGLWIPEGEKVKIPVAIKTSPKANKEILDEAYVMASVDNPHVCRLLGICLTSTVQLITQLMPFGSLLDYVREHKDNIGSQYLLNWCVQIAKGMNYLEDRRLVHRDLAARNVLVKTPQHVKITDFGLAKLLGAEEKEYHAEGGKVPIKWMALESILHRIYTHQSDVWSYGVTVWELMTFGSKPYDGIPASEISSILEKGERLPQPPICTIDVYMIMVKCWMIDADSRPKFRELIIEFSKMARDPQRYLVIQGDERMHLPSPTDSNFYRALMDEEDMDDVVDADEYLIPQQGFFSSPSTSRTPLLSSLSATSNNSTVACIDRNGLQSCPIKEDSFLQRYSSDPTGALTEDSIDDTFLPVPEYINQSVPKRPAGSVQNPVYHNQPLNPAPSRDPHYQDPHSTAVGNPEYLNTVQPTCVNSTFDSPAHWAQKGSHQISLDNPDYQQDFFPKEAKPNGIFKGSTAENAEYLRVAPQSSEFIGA
# Description: (§1) IC50 of compounds in the present invention was determined by Cell Titer GLO reagent from Promega. The procedures are as follows:
# (§2) Tumor cells were cultured in specified medium in an incubator at 37° C. and 5% CO2. The cells were passaged periodically. Cells at the logarithmic growth phase were collected for plating at a density of 2000-4000 cells/well. The next day, the compounds of the present invention were serially diluted and added to the cells, with DMSO being the negative control and the culture media without cells being the blank control. The plate was incubated in the incubator for 72 h. The cell viability assay was performed by adding the detection reagents to the cell culture media according to Cell Titer GLO reagent instructions and detecting luminescent signals on an EnVision microplate reader (PerkinElmer).
# (§3) Inhibition of cell growth by the compounds of the present invention was plotted by Prism Graphpad software for statistically calculating the IC50 of the compound of the present invention.
# [2] = test system: BaF3 (EGFR WT); assay: Cell proliferation IC50 assay (Cell Titer GLO), BaF3 WT cells; assay type: cell-based; conditions: Mus musculus, Ba/F3 EGFR, Table 6, 10 ng/ml EGF, 72 h
# Description: as §1, §2, §3
# [3] = test system: A431; assay: Cell proliferation IC50 assay (Cell Titer GLO), A431 cells; assay type: cell-based; conditions: Homo sapiens, A-431; Table 6; A431, 72 h; read-out: A431 IC50
# Description: as §1, §2, §3
# [4] = test system: BaF3 (EGFR L858R/T790M/C797S); assay: Cell proliferation IC50 assay (Cell Titer GLO), BaF3 LTC cells; assay type: cell-based; conditions: Mus musculus, Ba/F3 EGFR, Table 6, 72 h
# Description: as §1, §2, §3
pIC50 [1],pIC50 [2],pIC50 [3],pIC50 [4],SMILES
7.97,5.60,5.70,7.22,CCc1cc(Nc2ncc(Cl)c(Nc3ccccc3P(C)(C)=O)n2)c(OC)cc1N1CCC(N2CCN(CCOc3cc(F)cc4c3CN(C3CCC(=O)NC3=O)C4=O)CC2)CC1 (stereo not shown) [Example E66]
7.73,< 5.40,< 5.40,< 5.40,CCc1cc(Nc2ncc(-n3cc(C)cn3)c(Nc3ccccc3P(C)(C)=O)n2)c(OC)cc1N1CCC(N2CCN(CCOc3ccc4c(c3)CN(C3CCC(=O)NC3=O)C4=O)CC2)CC1 (stereo not shown) [Example E68]
9.15,6.57,5.90,< 5.40,CCc1cc(Nc2ncc(-c3cnn(C)c3)c(Nc3ccccc3P(C)(C)=O)n2)c(OC)cc1N1CCC(N2CCN([C@H]3C[C@H](Oc4cccc5c4CN(C4CCC(=O)NC4=O)C5=O)C3)CC2)CC1 (stereo partly shown) [Example E70]
7.42,< 5.40,< 5.40,6.80,CCc1cc(Nc2ncc(Cl)c(Nc3ccccc3P(C)(C)=O)n2)c(OC)cc1N1CCC2(CCN(CCCC#Cc3c(F)ccc4c3CN(C3CCC(=O)NC3=O)C4=O)CC2)CC1 (stereo not shown) [Example E74]
7.52,< 5.40,< 5.40,6.83,CCc1cc(Nc2ncc(Cl)c(Nc3ccccc3P(C)(C)=O)n2)c(OC)cc1N1CCC(N2CCc3ccc(Oc4cccc5c4CN(C4CCC(=O)NC4=O)C5=O)cc3C2)CC1 (stereo not shown) [Example E76]
8.92,5.84,5.83,7.74,CCc1cc(Nc2ncc(Cl)c(Nc3ccccc3P(C)(C)=O)n2)c(OC)cc1N1CCC(N2CCC3(CC(Oc4cccc5c4CN(C4CCC(=O)NC4=O)C5=O)C3)C2)CC1 (stereo not shown) [Example E83]
7.60,< 5.40,5.71,7.07,CCc1cc(Nc2ncc(Cl)c(Nc3ccccc3P(C)(C)=O)n2)c(OC)cc1N1CCC(N2CCN(C3(C#Cc4cccc5c4CN(C4CCC(=O)NC4=O)C5=O)CC3)CC2)CC1 (stereo not shown) [Example E84]
7.86,5.73,5.86,7.28,CCc1cc(Nc2ncc(Cl)c(Nc3ccccc3P(C)(C)=O)n2)c(OC)cc1N1CCC(N2CCN(C3(/C=C\c4cccc5c4CN(C4CCC(=O)NC4=O)C5=O)CC3)CC2)CC1 (stereo not shown) [Example E85]
8.04,5.57,5.79,7.22,CCc1cc(Nc2ncc(Cl)c(Nc3ccccc3P(C)(C)=O)n2)c(OC)cc1N1CCC(N2CCN(C(=O)CCCOc3cccc4c3CN(C3CCC(=O)NC3=O)C4=O)CC2)CC1 (stereo not shown) [Example E88]
7.88,5.68,≤ 5.43,6.85,CCc1cc(Nc2ncc(Cl)c(Nc3ccccc3P(C)(C)=O)n2)c(OC)cc1N1CCC2(CCN(C(=O)CCCOc3cccc4c3CN(C3CCC(=O)NC3=O)C4=O)CC2)CC1 (stereo not shown) [Example E90]
7.90,6.16,5.93,7.14,CCc1cc(Nc2ncc(Cl)c(Nc3ccccc3P(C)(C)=O)n2)c(OC)cc1N1CCC(N2CCN(CCCCOc3cc4c(cc3F)C(=O)N(C3CCC(=O)NC3=O)C4)CC2)CC1 (stereo not shown) [Example E92]
7.40,7.30,6.28,7.24,CCc1cc(Nc2ncc(Cl)c(Nc3ccccc3P(C)(C)=O)n2)cc(C#N)c1N1CCC(N2CCN(CCC#Cc3cccc4c3CN(C3CCC(=O)NC3=O)C4=O)CC2)CC1 (stereo not shown) [Example E94]
6.29,5.91,< 5.40,5.95,COc1cc2c(cc1Nc1ncc(Cl)c(Nc3ccccc3P(C)(C)=O)n1)CCN(C1CCN(C(=O)COc3cccc4c3CN(C3CCC(=O)NC3=O)C4=O)CC1)C2 (stereo not shown) [Example E100]
8.17,5.77,5.84,7.29,CCc1cc(Nc2ncc(Cl)c(Nc3ccccc3P(C)(C)=O)n2)c(OC)cc1N1CCC(N2CCN(CCCCOc3cccc4c3CN(C3CCC(=O)NC3=O)C4=O)CC2=O)CC1 (stereo not shown) [Example E101]
8.04,5.64,< 5.40,7.36,CCc1cc(Nc2ncc(Cl)c(Nc3ccccc3P(C)(C)=O)n2)c(OC)cc1N1CCC2(CCN(C(=O)COc3cccc4c3CN(C3CCC(=O)NC3=O)C4=O)CC2)CC1 (stereo not shown) [Example E104]
7.98,5.83,5.71,5.69,CCc1cc(Nc2ncc(C(=O)OC(C)C)c(Nc3ccccc3P(C)(C)=O)n2)c(OC)cc1N1CCC(N2CCN(CCCCOc3cccc4c3CN(C3CCC(=O)NC3=O)C4=O)CC2)CC1 (stereo not shown) [Example E105]
7.77,< 5.40,5.86,6.65,CCc1cc(Nc2ncc(Cl)c(Nc3ccccc3P(C)(C)=O)n2)c(OC)cc1N1CCC(N2CCN(CCNc3cccc4c3C(=O)N(C3CCC(=O)NC3=O)C4=O)CC2)CC1 (stereo not shown) [Example E106]
7.92,< 5.40,5.87,6.80,CCc1cc(Nc2ncc(Cl)c(Nc3ccccc3P(C)(C)=O)n2)c(OC)cc1N1CCC(N2CCN(CCCc3cccc4c3CN(C3CCC(=O)NC3=O)C4=O)C(=O)C2)CC1 (stereo not shown) [Example E107]
–,5.48,< 5.40,7.23,CCc1cc(Nc2ncc(Cl)c(Nc3ccccc3P(C)(C)=O)n2)c(OC)cc1N1CCC(N2Cc3cc(Oc4cccc5c4CN(C4CCC(=O)NC4=O)C5=O)ccc3C2=O)CC1 (stereo not shown) [Example E211]

# Further lines, the compound ahead of its results:
SMILES,pIC50 [1],pIC50 [2],pIC50 [3],pIC50 [4]
CCc1cc(Nc2ncc(Cl)c(Nc3ccccc3P(C)(C)=O)n2)c(OC)cc1N1CCC(N2CCc3ccc(Oc4cccc5c4CN(C4CCC(=O)NC4=O)C5=O)cc3CC2)CC1 (stereo not shown) [Example E34],8.60,5.90,5.83,7.77
CCc1cc(Nc2ncc(Cl)c(Nc3ccccc3P(C)(C)=O)n2)c(OC)cc1N1CCC(N2CCN(CCCCCc3cccc4c3CN(C3CCC(=O)NC3=O)C4=O)CC2)CC1 (stereo not shown) [Example E39],8.38,6.60,6.03,7.72
CCc1cc(Nc2ncc(Cl)c(Nc3ccccc3P(C)(C)=O)n2)c(OC)nc1N1CCC(N2CCN(CCC#Cc3cccc4c3CN(C3CCC(=O)NC3=O)C4=O)CC2)CC1 (stereo not shown) [Example E41],8.09,≤ 5.98,5.65,7.35
CCc1cc(Nc2ncc(Cl)c(Nc3ccccc3N(C)S(C)(=O)=O)n2)c(OC)cc1N1CCC(N2CCN(CCC#Cc3cccc4c3CN(C3CCC(=O)NC3=O)C4=O)CC2)CC1 (stereo not shown) [Example E42],8.25,7.04,5.94,7.36
CCCc1cc(Nc2ncc(Cl)c(Nc3ccccc3P(C)(C)=O)n2)c(OC)cc1N1CCC(N2CCN(CCC#Cc3cccc4c3CN(C3CCC(=O)NC3=O)C4=O)CC2)CC1 (stereo not shown) [Example E44],8.18,< 5.40,5.46,7.75
CCc1cc(Nc2ncc(Cl)c(Nc3ccccc3P(C)(C)=O)n2)c(OC)cc1N1CCC2(CCN(CCCCOc3cccc4c3CN(C3CCC(=O)NC3=O)C4=O)CC2)CC1 (stereo not shown) [Example E47],8.02,6.34,< 5.40,7.43
CCc1cc(Nc2ncc(Cl)c(Nc3ccc4[nH]ncc4c3P(C)(C)=O)n2)c(OC)cc1N1CCC(N2CCN(CCC#Cc3cccc4c3CN(C3CCC(=O)NC3=O)C4=O)CC2)CC1 (stereo not shown) [Example E51],7.85,< 5.40,5.96,7.24
COc1cc(N2CCC(N3CCN(CCC#Cc4cccc5c4CN(C4CCC(=O)NC4=O)C5=O)CC3)CC2)c(C#N)cc1Nc1ncc(Cl)c(Nc2ccccc2P(C)(C)=O)n1 (stereo not shown) [Example E52],7.82,< 5.40,5.98,7.38
CCc1cc(Nc2ncc(Cl)c(Nc3ccccc3P(C)(C)=O)n2)c(OC)cc1N1CCC(N2CCN(CCC#Cc3c(F)ccc4c3CN(C3CCC(=O)NC3=O)C4=O)CC2)CC1 (stereo not shown) [Example E54],7.69,6.45,5.93,7.29
CCc1cc(Nc2ncc(Cl)c(Nc3ccccc3P(C)(C)=O)n2)c(OC)cc1N1CCC(N2CCN(CCCCOc3ccc4c(c3F)CN(C3CCC(=O)NC3=O)C4=O)CC2)CC1 (stereo not shown) [Example E59],7.64,5.88,5.84,7.17
CCc1cc(Nc2ncc(Cl)c(Nc3ccccc3P(C)(C)=O)n2)c(OC)cc1N1CCC2(CC1)CC(N(C)CCCC#Cc1cccc3c1CN(C1CCC(=O)NC1=O)C3=O)C2 (stereo not shown) [Example E60],7.40,< 5.40,< 5.40,7.11
COc1cc(N2CCC3(CCN(CCCC#Cc4cccc5c4CN(C4CCC(=O)NC4=O)C5=O)CC3)CC2)c(C2CC2)cc1Nc1ncc(Cl)c(Nc2ccccc2P(C)(C)=O)n1 (stereo not shown) [Example E62],7.29,< 5.40,< 5.40,7.02
CCc1cc(Nc2nc(Nc3ccccc3P(C)(C)=O)c3cc[nH]c3n2)c(OC)cc1N1CCC(N2CCN(CCCCOc3cccc4c3CN(C3CCC(=O)NC3=O)C4=O)CC2)CC1 (stereo not shown) [Example E64],7.93,< 5.40,< 5.40,7.38
